The text below walks through data of patent US6800761B1, “Form of irbesartan, methods for obtaining said form and pharmaceutical compositions containing same” (Sanofi-Synthelabo, priority 1998, dated 2004).

Each structure is given as a SMILES string. Read-outs that look alike come from different tables or passages of the source.

For data set [1] the following is noted: for flowability index: Carr method: compressibility, angle of repose, spatula angle, cohesion. Here is the method:
The flowability index is calculated by the Carr method (R. Carr: Chemical Engineering, Jan. 18, 1965, page 163-168) and takes into account the results of four experimental values: compressibility, angle of repose, spatula angle and cohesion.

For data set [2] the following is noted: for packing density: Hosokawa machine, 180 gravity drops.
The conditions of data set [3]: as indicated in EP 708 103; cited from earlier work.
Where [4] appears, read: brick habit versus acicular habit.

For the compound `CCCCC1=NC2(CCCC2)C(=O)N1Cc1ccc(-c2ccccc2-c2nnn[nH]2)cc1` [irbesartan crystals in the brick habit, 2-n-butyl-4-spirocyclopentane-1-[(2′-(tetrazol-5-yl)biphenyl-4-yl)methyl]-2-imidazolin-5-one], the flowability index entry in data set [1] (listed as crystals of brick habit) was “about 30”. Also, the “increase in the flowability index with respect to the acicular habit” value in data set [1] (setting [4]) turned out to be 50%. In addition, the packing density entry in data set [2] (listed as irbesartan crystals having the new crystal habit) is listed as “about 0.5 kg m^3”. Further, the “increase in the packing density with respect to the acicular habit” value in data set [2] (setting [4]) is 50%.
Consider `CCCCC1=NC2(CCCC2)C(=O)N1Cc1ccc(-c2ccccc2-c2nnn[nH]2)cc1` [crystals of irbesartan in acicular form A] [2-n-butyl-4-spirocyclopentane-1-[(2′-(tetrazol-5-yl)biphenyl-4-yl)methyl]-2-imidazolin-5-one, reference compound], for which the flowability index result in data set [1] (listed as crystals of acicular habit) is given as “about 10”. Also, the packing density entry in data set [2] (listed as crystals of the acicular form A) is “about 0.35 kg/M^3”. The “stability and hygroscopicity of the crystals” value in data set [3] is on record as “stable, non-hygroscopic”.
